{
  "source": "patent US20240116942A1",
  "about": "“SELECTIVE CDK 4/6 INHIBITOR CANCER THERAPEUTICS” (LUNELLA BIOTECH, INC., priority 2020, published 2024)",
  "data": [
    {"system": "MCF7 cells", "assay": "mammosphere assay", "assay_type": "cell-based", "details": "compared to Trilaciclib", "excerpt": "Moreover, CSCs are strikingly resilient and highly resistant to cellular stress, which allows them to undergo anchorage-independent growth, especially under conditions of low-attachment. As a consequence, they form 3D spheroids, which retain the properties of CSCs and stem cell progenitors. In contrast, when subjected to growth in suspension, most “bulk” cancer cells die, via anoikis—a specialized type of apoptosis. […] Therefore, 3D spheroid formation is a functional read-out for stemness in epithelial cancer cells and allows one to enrich for a population of epithelioid cells with a stem-like phenotype. These 3D spheroids are also known as mammospheres when they are prepared using breast cancer cells, such as MCF7, among others.", "values": [
      {"smiles": "CCCCCCCCCCCCCC(=O)N1CCN(c2ccc(Nc3ncc4cc5n(c4n3)C3(CCCCC3)CNC5=O)nc2)CC1", "note": "[formula [2]]", "inhibition of MCF7 cells in the mammosphere assay": "remarkably improved inhibition"},
      {"smiles": "CCCCCCCCCCCCCCCC(=O)CCN1CCN(c2ccc(Nc3ncc4cc5n(c4n3)C3(CCCCC3)CNC5=O)nc2)CC1", "note": "[formula [3]]", "inhibition of MCF7 cells in the mammosphere assay": "remarkably improved inhibition"}
    ]},
    {"system": "CSCs (3D tumor sphere formation)", "assay": "not given", "details": "mitochondrial inhibitors; background statement; cited from earlier work", "values": [
      {"smiles": "Cc1n[nH]c(C)c1Cc1sc2c(c1C(=O)N1C[C@H](O)CO1)c(=O)n(C)c(=O)n2CC(C)C", "note": "[AR-C155858]", "3D tumor sphere formation": "successfully blocked"},
      {"smiles": "O=C(/C=C/c1ccc(O)c(O)c1)OCCc1ccccc1", "note": "[CAPE]", "3D tumor sphere formation": "successfully blocked"},
      {"smiles": "CCCCC[C@H](CC(=O)NO)C(=O)N[C@H](C(=O)N1CCC[C@H]1CO)C(C)C", "note": "[actinonin]", "3D tumor sphere formation": "successfully blocked"},
      {"smiles": "CC[C@H]1OC(=O)[C@H](C)[C@@H](O[C@H]2C[C@@](C)(OC)[C@@H](O)[C@H](C)O2)[C@H](C)[C@@H](O[C@@H]2O[C@H](C)C[C@H](N(C)C)[C@H]2O)[C@](C)(O)C[C@@H](C)CN(C)[C@H](C)[C@@H](O)[C@]1(C)O", "note": "[azithromycin]", "3D tumor sphere formation": "successfully blocked"},
      {"smiles": "COc1nc2ccc(Br)cc2cc1[C@@H](c1ccccc1)[C@@](O)(CCN(C)C)c1cccc2ccccc12", "note": "[bedaquiline]", "3D tumor sphere formation": "successfully blocked"},
      {"smiles": "COc1ccc2cc3[n+](cc2c1OC)CCc1cc2c(cc1-3)OCO2", "note": "[berberine]", "3D tumor sphere formation": "successfully blocked"},
      {"smiles": "COc1ccc([C@@H]2CC(=O)c3c(O)cc(O[C@@H]4O[C@H](COC(=O)CC(C)(O)CC(=O)O)[C@@H](O)[C@H](O)[C@H]4O[C@@H]4O[C@@H](C)[C@H](O)[C@@H](O)[C@H]4O)cc3O2)cc1O", "note": "(stereo partly drawn) [brutieridin]", "3D tumor sphere formation": "successfully blocked"},
      {"smiles": "C[C@@H]1O[C@@H](O[C@@H]2[C@@H](Oc3cc(O)c4c(c3)O[C@H](c3ccc(O)cc3)CC4=O)O[C@@H](COC(=O)C[C@@](C)(O)CC(=O)O)[C@H](O)[C@H]2O)[C@@H](O)[C@H](O)[C@H]1O", "note": "[melitidin]", "3D tumor sphere formation": "successfully blocked"},
      {"smiles": "CC[C@H]1/C=C/C=C/C[C@@H](C)[C@H](O)[C@@](C)(O)C(=O)[C@@H](C)[C@H](O)[C@@H](C)C(=O)[C@@H](C)[C@H](O)[C@@H](C)/C=C/C(=O)O[C@@H]2[C@H](C)[C@H](CC1)O[C@]1(CC[C@H](C)[C@H](C[C@@H](C)O)O1)[C@H]2C", "note": "[oligomycin]", "3D tumor sphere formation": "successfully blocked"},
      {"smiles": "CN(C)c1cc(NC(=O)CNC(C)(C)C)c(O)c2c1C[C@H]1C[C@H]3[C@H](N(C)C)C(O)=C(C(N)=O)C(=O)[C@@]3(O)C(O)=C1C2=O", "note": "[tigecycline]", "3D tumor sphere formation": "successfully blocked"}
    ]}
  ]
}
